System: lysate kinases (HEK293/HCT116 lysate mixture)
Experiment: Kinome selectivity profiling by kinobead competition
Type: binding
Settings: 10 μM compound
Description: Prior to conducting cellular studies with PAIRs, we first performed comprehensive kinome selectivity profiling using a chemical proteomic method (FIG. 4A).^41-43 To do this, we measured the ability of 1, 2, 5, 6, PAIR, and KIRA9 to compete with lysate kinases for binding to a mixture of bead-immobilized, nonselective kinase inhibitors (kinobeads). Each compound (10 μM) was incubated with a standard kinobead matrix and a HEK293/HCT116 lysate mixture and competed kinases were quantified using mass spectrometry.
Kinome Profiling and Selectivity Kinobead Enrichment Protocol
HEK293 and HCT116 cells were plated on 15 cm plates until 90% confluent and lysed into 750 μL modified RIPA buffer (50 mM Tris, 150 mM NaCl, 10 mM NaF, 1% NP40, 0.25% sodium deoxycholate, 5% glycerol, pH 7.8) containing protease inhibitor (Pierce Protease Inhibitor Tablets and 1 mM PMSF) and phosphatase inhibitor (Phosphatase inhibitor cocktail 2 and 3, Sigma Aldrich). Protein content was determined via Bradford assay. […]
Tryptic peptides were separated using a nanoAcquity UPLC instrument with 10 cm fused silica capillary columns made in house and packed with 5 μm 120 Å reverse-phase C18 beads (ReproSil-Pur®, Maisch). […] MS data was analyzed using a Thermo Orbitrap Fusion Tribrid. Raw files were analyzed using MaxQuant (Andromeda) Version 1.6.0.16. […]

SMILES: O=S(=O)(CC(F)(F)F)Nc1ccc(Oc2ncccc2-c2ccnc(N[C@H]3CCCNC3)n2)c2ccccc12 (stereo in doubt) [PAIR1, 2,2,2-trifluoro-N-(4-(3-(2-(piperidin-3-ylamino)pyrimidin-4-yl)pyridin-2-yloxy)naphthalen-1-yl)ethanesulfonamide]
- kinome selectivity: high selectivity for IRE1α

SMILES: O=S(=O)(CCC(F)(F)F)Nc1ccc(Oc2ncccc2-c2ccnc(NC3CCCNC3)n2)c2ccccc12 (centres unmarked) [KIRA9, 3,3,3-trifluoro-N-(4-(3-(2-(piperidin-3-ylamino)pyrimidin-4-yl)pyridin-2-yloxy)naphthalen-1-yl)propane-1-sulfonamide]
- kinome selectivity: equivalent potency and selectivity

Source: patent US11884649B2, “IRE1α inhibitors and uses thereof” (The Regents of the University of California, priority 2020, dated 2024)
